From ChEMBL document CHEMBL1201862, “PubChem BioAssay data set” (2004)
Active and inactive are the calls of the source.

Columns and labels:
[1] = A Cell Based Secondary Assay To Explore Cytotoxicity of Compounds that Sensitize Mycobacterium Tuberculosis to Beta-Lactam Antibiotics.; type: functional
[2] = target: T1, Corticotropin-releasing factor receptor 2/Corticotropin-releasing factor-binding protein (Homo sapiens, UniProt P24387+Q13324); assay: Dose Response confirmation of uHTS hits for small molecule antagonists of the CRF-binding protein and CRF-R2 receptor complex.; type: functional; details: read-out: IC50_Mean
T1 sequence (Q13324 whole entry): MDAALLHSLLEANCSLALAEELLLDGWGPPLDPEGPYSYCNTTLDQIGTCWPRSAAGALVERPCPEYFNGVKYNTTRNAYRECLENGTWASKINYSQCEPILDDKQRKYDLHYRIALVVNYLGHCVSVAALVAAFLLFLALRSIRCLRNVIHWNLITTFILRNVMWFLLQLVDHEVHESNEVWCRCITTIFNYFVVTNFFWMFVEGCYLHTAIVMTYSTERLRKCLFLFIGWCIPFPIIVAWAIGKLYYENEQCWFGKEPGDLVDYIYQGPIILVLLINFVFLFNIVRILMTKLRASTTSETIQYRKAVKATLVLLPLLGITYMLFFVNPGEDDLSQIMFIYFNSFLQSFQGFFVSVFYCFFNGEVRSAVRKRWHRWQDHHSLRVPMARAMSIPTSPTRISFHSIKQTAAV
T1 sequence (P24387 whole entry): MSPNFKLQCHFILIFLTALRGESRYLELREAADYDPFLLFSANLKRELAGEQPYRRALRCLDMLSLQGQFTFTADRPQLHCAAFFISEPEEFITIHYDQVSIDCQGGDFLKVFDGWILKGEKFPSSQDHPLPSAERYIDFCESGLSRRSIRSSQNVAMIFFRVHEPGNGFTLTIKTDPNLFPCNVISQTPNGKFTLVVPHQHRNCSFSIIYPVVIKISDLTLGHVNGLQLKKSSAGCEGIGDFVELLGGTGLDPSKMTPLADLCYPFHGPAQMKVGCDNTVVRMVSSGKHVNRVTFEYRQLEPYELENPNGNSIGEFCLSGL

[3] = target: T1, Corticotropin-releasing factor receptor 2/Corticotropin-releasing factor-binding protein; assay: activators of CRF receptor 2 with binding protein – uHTS hits, confirmation (AID 602473); type: functional; details: read-out: EC50_Mean
[4] = target: G-protein coupled receptor 55 (Homo sapiens, UniProt Q9Y2T6); assay: GPR55 agonists via beta-arrestin recruitment, primary screen, imaging, U2OS cells, beta-arrestin-GFP redistribution (AID 1961); type: functional
Cytochrome P450 2C9 = Cytochrome P450 2C9 (Homo sapiens, UniProt P11712)
[5] = THP-1 cell cytotoxicity, dose response, cytotoxicity control for Vif-APOBEC3G degradation inhibitor project, THP-1 cells (AID 1117359); type: functional; details: Human immunodeficiency virus 1, THP-1
Estrogen receptor = target: T2, Estrogen receptor (Homo sapiens, UniProt P03372);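 note: potency for inhibiting coactivator peptide recruitment to the receptor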
T2 sequence (P03372 whole entry): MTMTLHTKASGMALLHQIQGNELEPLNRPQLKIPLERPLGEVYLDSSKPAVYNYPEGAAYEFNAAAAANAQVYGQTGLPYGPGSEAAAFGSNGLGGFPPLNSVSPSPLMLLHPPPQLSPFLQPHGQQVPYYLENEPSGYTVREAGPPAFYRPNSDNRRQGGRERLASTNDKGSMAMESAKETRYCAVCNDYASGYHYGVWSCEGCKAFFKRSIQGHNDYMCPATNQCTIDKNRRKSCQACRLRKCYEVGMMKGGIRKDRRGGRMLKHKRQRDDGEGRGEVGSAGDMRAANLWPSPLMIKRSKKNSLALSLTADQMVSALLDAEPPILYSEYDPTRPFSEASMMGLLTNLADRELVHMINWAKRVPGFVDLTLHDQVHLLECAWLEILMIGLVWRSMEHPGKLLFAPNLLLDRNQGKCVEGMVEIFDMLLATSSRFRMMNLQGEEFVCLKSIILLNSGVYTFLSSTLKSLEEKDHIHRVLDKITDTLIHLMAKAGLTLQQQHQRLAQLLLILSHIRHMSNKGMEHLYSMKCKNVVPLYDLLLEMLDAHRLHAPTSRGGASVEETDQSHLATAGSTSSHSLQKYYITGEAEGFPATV

[6] = target: T3, Replicative DNA helicase DnaB (Mycobacterium tuberculosis, UniProt P9WMR3); assay: DnaB intein splicing inhibitors, dose response, biochemical, cell-free fluorescence (AID 449749); type: functional
T3 sequence (P9WMR3 whole entry): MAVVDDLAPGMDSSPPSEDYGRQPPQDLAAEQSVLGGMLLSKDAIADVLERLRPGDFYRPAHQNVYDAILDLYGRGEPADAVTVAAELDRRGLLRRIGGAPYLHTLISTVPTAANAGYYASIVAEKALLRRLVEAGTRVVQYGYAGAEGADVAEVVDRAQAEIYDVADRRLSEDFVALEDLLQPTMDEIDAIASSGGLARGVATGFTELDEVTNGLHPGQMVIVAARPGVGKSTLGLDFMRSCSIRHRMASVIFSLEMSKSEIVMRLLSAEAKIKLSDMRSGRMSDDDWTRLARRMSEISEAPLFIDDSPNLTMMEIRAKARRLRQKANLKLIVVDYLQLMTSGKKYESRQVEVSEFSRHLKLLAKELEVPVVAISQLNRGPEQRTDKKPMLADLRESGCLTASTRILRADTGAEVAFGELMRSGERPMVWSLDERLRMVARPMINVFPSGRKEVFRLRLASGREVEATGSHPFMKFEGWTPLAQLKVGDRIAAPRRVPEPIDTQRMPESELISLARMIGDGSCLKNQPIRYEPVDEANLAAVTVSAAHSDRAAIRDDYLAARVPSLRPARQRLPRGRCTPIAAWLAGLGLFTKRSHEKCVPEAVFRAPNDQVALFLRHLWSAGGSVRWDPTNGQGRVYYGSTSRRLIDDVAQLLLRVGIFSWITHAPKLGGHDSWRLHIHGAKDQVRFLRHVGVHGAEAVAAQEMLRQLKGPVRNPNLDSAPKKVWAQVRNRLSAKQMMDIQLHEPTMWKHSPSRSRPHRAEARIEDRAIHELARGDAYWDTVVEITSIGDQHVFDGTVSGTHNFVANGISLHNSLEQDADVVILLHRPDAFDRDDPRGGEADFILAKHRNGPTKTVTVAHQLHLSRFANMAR

Protein RecA = target: T4, Protein RecA (Mycobacterium tuberculosis, UniProt P9WHJ3); assay: Fluorescence Cell-Free Homogeneous Dose Retest to Identify Inhibitors of RecA-Intein Splicing Activity. [Related pubchem assays (depositor defined):AID2097, AID2223, AID489010, AID492950]; type: functional
T4 sequence (P9WHJ3 whole entry): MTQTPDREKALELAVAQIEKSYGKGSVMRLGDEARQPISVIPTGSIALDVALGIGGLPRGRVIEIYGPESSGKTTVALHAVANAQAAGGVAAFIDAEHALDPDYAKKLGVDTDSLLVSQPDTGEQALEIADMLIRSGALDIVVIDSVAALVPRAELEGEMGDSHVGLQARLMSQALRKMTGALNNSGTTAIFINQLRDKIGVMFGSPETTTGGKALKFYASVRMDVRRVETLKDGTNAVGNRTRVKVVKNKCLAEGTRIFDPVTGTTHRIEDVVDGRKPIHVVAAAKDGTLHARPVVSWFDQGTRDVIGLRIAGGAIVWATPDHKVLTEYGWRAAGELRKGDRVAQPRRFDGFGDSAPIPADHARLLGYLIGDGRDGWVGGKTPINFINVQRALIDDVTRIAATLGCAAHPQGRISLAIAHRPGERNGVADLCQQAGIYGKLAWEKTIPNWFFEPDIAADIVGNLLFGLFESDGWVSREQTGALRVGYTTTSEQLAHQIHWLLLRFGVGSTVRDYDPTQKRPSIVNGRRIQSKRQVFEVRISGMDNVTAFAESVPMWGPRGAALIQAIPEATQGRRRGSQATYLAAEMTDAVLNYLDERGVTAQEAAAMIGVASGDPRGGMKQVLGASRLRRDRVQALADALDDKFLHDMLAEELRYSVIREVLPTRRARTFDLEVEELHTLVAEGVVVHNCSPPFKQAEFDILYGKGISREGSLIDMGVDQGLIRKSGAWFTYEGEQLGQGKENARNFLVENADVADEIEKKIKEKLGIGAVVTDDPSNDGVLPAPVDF

HEK293 [7] = assay: NOD1 signaling inhibitors, primary screen, cell-based, luminescence, uHTS (AID 1578); type: functional; details: Homo sapiens
HEK293 [8] = assay: cells; type: functional, cell-based; details: Homo sapiens
HEK293 [9] = assay: cells; type: functional, cell-based; details: Homo sapiens; remark: listed apart in the source
[10] = target: Nucleotide-binding oligomerization domain-containing protein 2 (Homo sapiens, UniProt Q9HC29); assay: NOD2 signaling inhibitors, cell-based, luminescence, uHTS, HEK293 (AID 1566); type: functional
HEK293 [11] = assay: NOD2 signaling inhibitors in MDP-stimulated cells, cell-based, uHTS, luminescence (AID 2001); type: functional; details: Homo sapiens
HEK293 [12] = assay: cells; type: functional, cell-based; details: Homo sapiens; remark: listed apart in the source
[13] = Shn3 3'UTR reporter inhibitors, dose response, cell-based, Clone20 osteoblasts, firefly luciferase, cherry-picked (AID 624132); type: functional;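 note: firefly luciferase luminescence from reporter carrying the Shn3 3'UTR in osteoblasts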
[14] = HepG2 cell cytotoxicity, dose response, cytotoxicity control for Shn3 inhibitor project, CellTiter-Glo, cherry-picked (AID 624134); type: functional, cell-based
[15] = control 3'UTR Renilla luciferase suppression, dose response, counter-screen for Shn3 inhibitor project, cell-based, Clone20-Shn3RL, cherry-picked (AID 624133); type: functional

Sequence of G-protein coupled receptor 55 (Q9Y2T6 whole entry): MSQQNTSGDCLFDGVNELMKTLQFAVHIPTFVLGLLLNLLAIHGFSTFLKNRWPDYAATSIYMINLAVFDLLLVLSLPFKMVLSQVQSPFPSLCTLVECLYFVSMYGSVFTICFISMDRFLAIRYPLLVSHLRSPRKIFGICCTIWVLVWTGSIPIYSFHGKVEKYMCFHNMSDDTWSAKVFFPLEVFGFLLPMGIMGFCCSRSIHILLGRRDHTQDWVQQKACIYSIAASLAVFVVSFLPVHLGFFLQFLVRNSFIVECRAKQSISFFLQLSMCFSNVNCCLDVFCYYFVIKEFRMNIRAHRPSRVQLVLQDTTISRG
Sequence of Nucleotide-binding oligomerization domain-containing protein 2 (Q9HC29 whole entry, the tested form may be a part): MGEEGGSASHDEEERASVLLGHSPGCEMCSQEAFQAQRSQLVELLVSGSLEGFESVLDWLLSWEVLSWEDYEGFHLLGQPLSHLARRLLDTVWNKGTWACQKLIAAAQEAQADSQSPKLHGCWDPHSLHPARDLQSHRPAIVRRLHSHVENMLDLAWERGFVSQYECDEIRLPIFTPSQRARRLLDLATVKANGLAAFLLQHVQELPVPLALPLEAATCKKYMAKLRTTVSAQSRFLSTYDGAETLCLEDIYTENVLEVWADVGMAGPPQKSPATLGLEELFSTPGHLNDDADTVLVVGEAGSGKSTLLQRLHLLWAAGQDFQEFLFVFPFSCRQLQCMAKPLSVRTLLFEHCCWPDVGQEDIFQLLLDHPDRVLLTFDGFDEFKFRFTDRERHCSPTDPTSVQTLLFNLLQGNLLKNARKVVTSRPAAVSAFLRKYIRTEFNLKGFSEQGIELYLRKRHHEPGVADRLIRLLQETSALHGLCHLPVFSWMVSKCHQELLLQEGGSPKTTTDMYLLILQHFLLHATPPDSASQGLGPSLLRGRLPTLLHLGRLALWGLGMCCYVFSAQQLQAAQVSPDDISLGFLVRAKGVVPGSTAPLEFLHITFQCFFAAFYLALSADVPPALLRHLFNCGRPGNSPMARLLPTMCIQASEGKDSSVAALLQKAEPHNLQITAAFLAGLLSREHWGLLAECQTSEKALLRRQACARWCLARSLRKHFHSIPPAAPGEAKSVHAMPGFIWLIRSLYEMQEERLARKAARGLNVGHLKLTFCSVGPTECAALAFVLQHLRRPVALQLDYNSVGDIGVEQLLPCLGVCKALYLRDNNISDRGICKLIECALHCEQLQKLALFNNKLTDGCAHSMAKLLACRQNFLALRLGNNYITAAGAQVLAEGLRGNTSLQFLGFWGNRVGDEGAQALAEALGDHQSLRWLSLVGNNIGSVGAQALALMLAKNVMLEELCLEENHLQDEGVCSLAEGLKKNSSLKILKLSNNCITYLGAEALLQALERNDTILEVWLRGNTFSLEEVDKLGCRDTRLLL
Sequence of Cytochrome P450 2C9 (P11712 whole entry): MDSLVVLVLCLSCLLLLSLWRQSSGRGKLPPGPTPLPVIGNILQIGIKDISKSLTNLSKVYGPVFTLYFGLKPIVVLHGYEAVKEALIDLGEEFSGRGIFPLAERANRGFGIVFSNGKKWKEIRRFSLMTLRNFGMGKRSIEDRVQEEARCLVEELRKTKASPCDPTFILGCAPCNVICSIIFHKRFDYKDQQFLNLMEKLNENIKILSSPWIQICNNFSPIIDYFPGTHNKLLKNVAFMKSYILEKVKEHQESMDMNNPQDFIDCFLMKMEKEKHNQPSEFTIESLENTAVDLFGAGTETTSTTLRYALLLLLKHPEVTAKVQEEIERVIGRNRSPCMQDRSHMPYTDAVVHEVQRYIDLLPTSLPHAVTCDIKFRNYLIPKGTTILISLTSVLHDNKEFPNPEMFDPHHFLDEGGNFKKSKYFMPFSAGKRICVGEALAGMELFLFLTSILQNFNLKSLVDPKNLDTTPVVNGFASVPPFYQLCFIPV

Cc1cc2c(N=NC(=O)C3CC3c3ccccc3)c(O)[nH]c2cc1Br (stereo not given)
CC50 [1]: 32.8 µM (active) | IC50 [2]: > 47.1 µM (inactive) | EC50 [3]: > 53 µM (inactive)

O=C(CSc1nc2ccccc2o1)N1c2ccccc2Sc2ccc(Cl)cc21
EC50 [4]: > 32 µM (inactive) | AC50 (Cytochrome P450 2C9): 3.16 µM (inconclusive)

O=CN1CCN(c2ncnc3c2nnn3Cc2c(F)cccc2Cl)CC1
EC50 [4]: 12.7 µM (inactive)

COc1cccc(/C=N/NC(=O)c2cnccn2)c1O
CC50 [1]: > 40 µM (active) | CC50 [5]: > 40 µM (active)

O=C(Oc1ccc(N2C(=O)CCC2=O)cc1)c1ccco1
IC50 (Estrogen receptor): > 50 µM (not active) | AC50 [6]: 0.351 µM (inconclusive) | EC50 (Protein RecA): 0.388 µM (active)

Cc1nc2ccc(NC(=O)c3cccc(S(=O)(=O)N(C)c4ccccc4)c3)cc2s1
EC50 (HEK293 [7]): 7.57 µM (active) | IC50 (HEK293 [8]): 6.11 µM (active) | IC50 (HEK293 [9]): 9.65 µM (active) | EC50 [10]: 7.35 µM (active) | IC50 (HEK293 [11]): 5.24 µM (active) | IC50 (HEK293 [12]): 15.2 µM (active) | AC50 [13]: 7.6 µM (active) | AC50 [14]: 58.6 µM (active) | AC50 [15]: 12.8 µM (active)
